# From patent US5122368A, “Anthracycline conjugates having a novel linker and methods for their production” (Bristol-Myers Squibb Company, priority 1989, dated 1992)
# Where “and” joins values, the source holds several entries; their conditions need not be identical. Equal entries are not always repeated. Structures can show the parent of a compound that is named as a salt. Where two headings read alike, the source gives them in different places.
# Assays:
# Daudi tumor xenografts = experiment: In vivo anti-tumor activity on Daudi tumor xenografts; settings: for anti-tumor activity: Q5D×2 (days 20 and 25), 4.1 mg/kg/inj ADM and/or 630 mg/kg/inj 5E9
# Ramos tumor xenografts = experiment: In vivo anti-tumor activity on Ramos tumor xenografts; set-up: species or system BALB/c nude mice; settings: Q7D×3, i.v. (title: Q1D×1; i.v.)
# [1] = for % Deaths / D/T, # Deaths/Total Treated: Daudi or Ramos bearing mice
# [2] = 4.1 mg/kg/inj, cum 8.2, Q5D×2, i.p.
# [3] = 4.5 mg/kg/inj, cum 9, Q5D×2, i.p.
# [4] = 5 mg/kg/inj, cum 15, Q7D×3, i.v.
# [5] = 5.5 mg/kg/inj, cum 11, Q5D×2, i.p.
# [6] = 9 mg/kg/inj, cum 27, Q7D×3, i.v.
# [7] = 11 mg/kg/inj, cum 33, Q7D×3, i.v., hydrochloride
# [8] = 12 mg/kg/inj, cum 36, Q7D×3, i.v., hydrochloride
# [9] = N=1, Q1D×1, i.v., ADM 14 mg/kg/inj, cumulative 14
# [10] = N=1, Q2D×2, i.v., ADM 8 mg/kg/inj, cumulative 16
# [11] = N=1, Q2D×2, i.v., ADM 10 mg/kg/inj, cumulative 20
# [12] = N=1, Q2D×2, i.v., ADM 15 mg/kg/inj, cumulative 30
# [13] = N=1, Q3D×2, i.v., ADM 12 mg/kg/inj, cumulative 24
# [14] = N=1, Q3D×2, i.v., ADM 14 mg/kg/inj, cumulative 28
# [15] = N=1, Q3D×2, i.v., ADM 16 mg/kg/inj, cumulative 32
# [16] = N=1, Q4D×2, i.v., ADM 10 mg/kg/inj, cumulative 20
# [17] = N=1, Q4D×2, i.v., ADM 14 mg/kg/inj, cumulative 28
# [18] = N=1, Q4D×3, i.p., ADM 5 mg/kg/inj, cumulative 15
# [19] = N=1, Q5D×2, i.p., ADM 4.1 mg/kg/inj, cumulative 8.2
# [20] = N=1, Q5D×2, i.p., ADM 5.5 mg/kg/inj, cumulative 11
# [21] = N=1, Q7D×3, i.v., ADM 12 mg/kg/inj, cumulative 36
# [22] = N=1, Q8D×2, i.p., ADM 5 mg/kg/inj, cumulative 10
# [23] = N=1, Q8D×2, i.p., ADM 10 mg/kg/inj, cumulative 20
# [24] = N=1, Q8D×2, i.p., ADM 13 mg/kg/inj, cumulative 26
# [25] = N=2, Q2D×2, i.v., ADM 12 mg/kg/inj, cumulative 24
# [26] = N=2, Q4D×2, i.v., ADM 12 mg/kg/inj, cumulative 24
# [27] = N=3, Q1D×1, i.v., ADM 16 mg/kg/inj, cumulative 16
# [28] = N=3, Q7D×3, i.v., ADM 10 mg/kg/inj, cumulative 30
# [29] = N=3, Q7D×3, i.v., ADM 11 mg/kg/inj, cumulative 33
# [30] = N=4 experiments, Q1D×1, i.v., ADM 18 mg/kg/inj, cumulative 18
# [31] = Daudi-bearing mice, 5 mg/kg/inj, cum 10, Q8D×2, i.p.
# [32] = Daudi-bearing mice, 5 mg/kg/inj, cum 15, Q4D×3, i.p.
# [33] = Daudi-bearing mice, 5 mg/kg/inj, cum 15, Q7D×3, i.p.
# [34] = Daudi-bearing mice, 5 mg/kg/inj, cum 15, Q7D×3, i.v.
# [35] = Daudi-bearing mice, 10 mg/kg/inj, cum 30, Q7D×3, i.p.
# [36] = Daudi-bearing mice, 11 mg/kg/inj, cum 33, Q7D×3, i.v., hydrochloride, 11 mg/kg
# [37] = Daudi-bearing mice, 12 mg/kg/inj, cum 12, Q1D×1, i.v.
# [38] = Daudi-bearing mice, 13 mg/kg/inj, cum 26, Q8D×2, i.p.
# [39] = Daudi-bearing mice, 15 mg/kg/inj, cum 15, Q1D×1, i.v.
# [40] = Daudi-bearing mice, 18 mg/kg/inj, cum 18, Q1D×1, i.v.
# [41] = Daudi-bearing mice, 20 mg/kg/inj, cum 20, Q1D×1, i.v.
# [42] = Ramos-bearing mice, 16 mg/kg/inj, Q7D×3, i.v. (title: Q1D×1; i.v.)
# [43] = Ramos-bearing mice, 18 mg/kg/inj, Q7D×3, i.v. (title: Q1D×1; i.v.)
structure (smiles),measurement,setting,value
"COc1cccc2c1C(=O)c1c(O)c3c(c(O)c1C2=O)C[C@@](O)(C(=O)CO)C[C@@H]3O[C@H]1C[C@H](N)[C@H](O)[C@H](C)O1 [ADM-HCl, adriamycin hydrochloride]","CR, complete regressions",Daudi tumor xenografts; [2],0
same,Cures,Daudi tumor xenografts; [2],0
same,"T-C, delay to reach 3000 mm^3 vs untreated controls",Daudi tumor xenografts; [2],0 days
same,"TDD, tumor doubling delay",Daudi tumor xenografts; [2],0
same,"CR, complete regressions",Daudi tumor xenografts; [3],0
same,Cures,Daudi tumor xenografts; [3],0
same,"T-C, delay to reach 3000 mm^3 vs untreated controls",Daudi tumor xenografts; [3],2.2 days
same,"CR, complete regressions",Daudi tumor xenografts; [4],2
same,Cures,Daudi tumor xenografts; [4],0
same,"T-C, delay to reach 3000 mm^3 vs untreated controls",Daudi tumor xenografts; [4],6.2 days
same,"TDD, tumor doubling delay",Daudi tumor xenografts; [4],0.18
same,"CR, complete regressions",Daudi tumor xenografts; [5],0
same,Cures,Daudi tumor xenografts; [5],0
same,"T-C, delay to reach 3000 mm^3 vs untreated controls",Daudi tumor xenografts; [5],2.2 days
same,"TDD, tumor doubling delay",Daudi tumor xenografts; [5],.1
same,"CR, complete regressions",Daudi tumor xenografts; [6],0
same,Cures,Daudi tumor xenografts; [6],1
same,"T-C, delay to reach 3000 mm^3 vs untreated controls",Daudi tumor xenografts; [6],23 days
same,"TDD, tumor doubling delay",Daudi tumor xenografts; [6],0.9
same,"CR, complete regressions","Daudi tumor xenografts; 10 mg/kg/inj, cum 30, Q7D×3, i.v.",0
same,"TDD, tumor doubling delay","Daudi tumor xenografts; 10 mg/kg/inj, cum 30, Q7D×3, i.v., hydrochloride",0.7 and 0.8
same,"T-C, delay to reach 3000 mm^3 vs untreated controls",Daudi tumor xenografts; [7],28 days and > 42 days and 21 days
same,"TDD, tumor doubling delay",Daudi tumor xenografts; [7],1.1 and > 1.3 and 0.7 and > 1.1
same,Cures,"Daudi tumor xenografts; 12 mg/kg/inj, cum 36, Q7D×3, i.v.",3
same,"T-C, delay to reach 3000 mm^3 vs untreated controls",Daudi tumor xenografts; [8],> 62 days and > 33 days
same,"TDD, tumor doubling delay",Daudi tumor xenografts; [8],> 2.0 and > 1.5
same,anti-tumor activity,"Daudi tumor xenografts; i.p., hydrochloride",no anti-tumor activity
same,anti-tumor activity,"Daudi tumor xenografts; i.p., listed as ADM, hydrochloride",inactive
same,growth inhibition of Daudi tumor xenografts,"Daudi tumor xenografts; Q7D×3, i.v., 9, 10 or 11 mg/kg/injection",significantly inhibited in a dose dependent fashion
same,anti-tumor activity at MTD,"Daudi tumor xenografts; i.p. route, MTD",inactive
same,"CR, complete regressions",Ramos tumor xenografts; 16 mg/kg/inj,0
same,Cures,Ramos tumor xenografts; 16 mg/kg/inj,0
same,"T-C, delay to reach 3000 mm^3 vs untreated controls",Ramos tumor xenografts; 16 mg/kg/inj,5 days
same,"TDD, tumor doubling delay",Ramos tumor xenografts; 16 mg/kg/inj,0.3
same,"CR, complete regressions",Ramos tumor xenografts; 18 mg/kg/inj,0
same,Cures,Ramos tumor xenografts; 18 mg/kg/inj,0
same,"T-C, delay to reach 3000 mm^3 vs untreated controls",Ramos tumor xenografts; 18 mg/kg/inj,8 days
same,"TDD, tumor doubling delay",Ramos tumor xenografts; 18 mg/kg/inj,0.5
same,% Deaths,[1]; [9],0%
same,"D/T, # Deaths/Total Treated",[1]; [9],0/8
same,% Deaths,[1]; [10],20%
same,"D/T, # Deaths/Total Treated",[1]; [10],1/5
same,% Deaths,[1]; [11],60%
same,"D/T, # Deaths/Total Treated",[1]; [11],3/5
same,% Deaths,[1]; [12],100%
same,"D/T, # Deaths/Total Treated",[1]; [12],7/7
same,% Deaths,[1]; [13],75%
same,"D/T, # Deaths/Total Treated",[1]; [13],6/8
same,% Deaths,[1]; [14],88%
same,"D/T, # Deaths/Total Treated",[1]; [14],7/8
same,% Deaths,[1]; [15],100%
same,"D/T, # Deaths/Total Treated",[1]; [15],8/8
same,% Deaths,[1]; [16],25%
same,"D/T, # Deaths/Total Treated",[1]; [16],2/8
same,% Deaths,[1]; [17],86%
same,"D/T, # Deaths/Total Treated",[1]; [17],6/7
same,% Deaths,[1]; [18],67%
same,"D/T, # Deaths/Total Treated",[1]; [18],6/9
same,% Deaths,[1]; [19],20%
same,"D/T, # Deaths/Total Treated",[1]; [19],1/5
same,% Deaths,[1]; [20],0%
same,"D/T, # Deaths/Total Treated",[1]; [20],0/8
same,% Deaths,[1]; [21],50%
same,"D/T, # Deaths/Total Treated",[1]; [21],4/8
same,% Deaths,[1]; [22],38%
same,"D/T, # Deaths/Total Treated",[1]; [22],3/8
same,% Deaths,[1]; [23],100%
same,"D/T, # Deaths/Total Treated",[1]; [23],8/8
same,% Deaths,[1]; [24],100%
same,"D/T, # Deaths/Total Treated",[1]; [24],7/7
same,% Deaths,[1]; [25],83%
same,"D/T, # Deaths/Total Treated",[1]; [25],10/12
same,% Deaths,[1]; [26],47%
same,"D/T, # Deaths/Total Treated",[1]; [26],7/15
same,% Deaths,[1]; [27],10%
same,"D/T, # Deaths/Total Treated",[1]; [27],3/31
same,% Deaths,[1]; [28],0%
same,"D/T, # Deaths/Total Treated",[1]; [28],0/24
same,% Deaths,[1]; [29],15%
same,"D/T, # Deaths/Total Treated",[1]; [29],4/26
same,% Deaths,[1]; [30],44%
same,"D/T, # Deaths/Total Treated",[1]; [30],14/32
same,"D/T, deaths/total animals","[1]; Daudi-bearing mice, 4.1 mg/kg/inj, cum 8.2, Q5D×2, i.p.",1/5
same,"D/T, deaths/total animals","[1]; Daudi-bearing mice, 4.5 mg/kg/inj, cum 9, Q5D×2, i.p., hydrochloride, 4.5 mg/kg",0/5 and 0/8
same,"D/T, deaths/total animals",[1]; [31],3/8
same,"Toxicity (%), deaths",[1]; [31],37%
same,"D/T, deaths/total animals",[1]; [32],6/9
same,"Toxicity (%), deaths",[1]; [32],67%
same,"D/T, deaths/total animals",[1]; [33],6/9
same,"Toxicity (%), deaths",[1]; [33],67%
same,"D/T, deaths/total animals",[1]; [34],1/9
same,"Toxicity (%), deaths",[1]; [34],11%
same,"D/T, deaths/total animals","[1]; Daudi-bearing mice, 5.5 mg/kg/inj, cum 11, Q5D×2, i.p.",0/8
same,"D/T, deaths/total animals","[1]; Daudi-bearing mice, 9 mg/kg/inj, cum 27, Q7D×3, i.v.",0/10
same,"D/T, deaths/total animals","[1]; Daudi-bearing mice, 10 mg/kg/inj, cum 20, Q8D×2, i.p.",8/8
same,"D/T, deaths/total animals",[1]; [35],8/8
same,"Toxicity (%), deaths",[1]; [35],100%
same,"D/T, deaths/total animals","[1]; Daudi-bearing mice, 10 mg/kg/inj, cum 30, Q7D×3, i.v., hydrochloride, 10 mg/kg",0/8 and 0/7
same,"D/T, deaths/total animals",[1]; [36],2/8 and 2/10 and 0/8
same,"Toxicity (%), deaths",[1]; [36],25% and 20%
same,"D/T, deaths/total animals",[1]; [37],7/7
same,"Toxicity (%), deaths",[1]; [37],100%
same,"Toxicity (%), deaths","[1]; Daudi-bearing mice, 12 mg/kg/inj, cum 36, Q7D×3, i.v.",50%
same,"D/T, deaths/total animals","[1]; Daudi-bearing mice, 12 mg/kg/inj, cum 36, Q7D×3, i.v., hydrochloride, 12 mg/kg",4/8 and 2/8
same,"D/T, deaths/total animals",[1]; [38],7/7
same,"Toxicity (%), deaths",[1]; [38],100%
same,"D/T, deaths/total animals",[1]; [39],7/7
same,"Toxicity (%), deaths",[1]; [39],100%
same,"D/T, deaths/total animals",[1]; [40],6/8
same,"Toxicity (%), deaths",[1]; [40],75%
same,"D/T, deaths/total animals",[1]; [41],7/7
same,"Toxicity (%), deaths",[1]; [41],100%
same,MTD (maximum tolerated dose),"[1]; Q7D×3, i.v.",11 mg/kg/inj
same,"D/T, deaths/total animals",[1]; [42],1/8
same,"Toxicity (%), deaths (lethality)",[1]; [42],12%
same,"D/T, deaths/total animals",[1]; [43],2/8
same,"Toxicity (%), deaths (lethality)",[1]; [43],25%
same,MTD (maximum tolerated dose),[1]; i.p.,4-5 mg/kg/inj
